Experimental findings from ChEMBL document CHEMBL5344418, “Recent developments in antimalarial activities of 4-aminoquinoline derivatives” (Eur J Med Chem, 2023) are described below.

Data set [1] relates to Plasmodium falciparum. In words: Antiplasmodial activity against Plasmodium falciparum 3D7 assessed as reduction in parasite growth by Lactate dehydrogenase assay. The format is functional, organism-based.
The test system of data set [2] is Plasmodium falciparum. The data set can be described thus: Antiplasmodial activity against Plasmodium falciparum K1. The format is functional, organism-based.
The subject of data set [3] is Plasmodium falciparum. In words: Antiplasmodial activity against Plasmodium falciparum 3D7. The format is functional, organism-based.
For data set [4], the system named is Plasmodium falciparum. In words: Antimalarial activity against Plasmodium falciparum Dd2 assessed as reduction in parasitic growth incubated for 48 hrs by SYBR green assay. The format is functional, organism-based. As to conditions: Dd2, 48 h.
Data set [5] concerns Plasmodium falciparum. In words: Antiplasmodial activity against chloroquine-sensitive Plasmodium falciparum 3D7 assessed as parasitic growth inhibition incubated for 72 hrs by SYBR Green staining based fluorescence analysis. The format is functional, organism-based. As to conditions: 3D7, 72 h.
The subject of data set [6] is Plasmodium falciparum. In words: Antiplasmodial activity against chloroquine-resistant Plasmodium falciparum W2 assessed as parasitic growth inhibition incubated for 72 hrs by SYBR Green staining based fluorescence analysis. The format is functional, organism-based. As to conditions: W2, 72 h.
In data set [7] the test system is Plasmodium falciparum. In words: Antimalarial activity against chloroquine-sensitive Plasmodium falciparum 3D7 assessed as reduction in parasite growth incubated for 36 hrs by Giemsa staining based microscopic analysis. As to conditions: 3D7, 36 h. The format is functional, organism-based.
The nature of data set [8]: Cytotoxicity against African monkey Vero cells assessed as reduction in cell viability incubated for 72 hrs by MTT assay. Format: toxicity, cell-based. As to conditions: chlorocebus sabaeus. A general note: Tetrazolium assays rely on reduction of a dye to a coloured formazan, in cell work by metabolically active cells.
A short description of data set [9]: Cytotoxicity against African green monkey Vero cells. The format is toxicity, cell-based. As to conditions: chlorocebus sabaeus.
A short description of data set [10]: Cytotoxicity against African green monkey Vero cells assessed as reduction in cell viability incubated for 24 hrs by fluorescence based analysis. Format: toxicity. As to conditions: African green monkey (Chlorocebus sabaeus).
Data set [11] has as its system Plasmodium falciparum. The data set can be described thus: Antimalarial activity against chloroquine-resistant Plasmodium falciparum W2 assessed as growth inhibition incubated for 48 hrs by flow cytometry based analysis. Format: functional, organism-based. As to conditions: W2, 48 h.

SMILES strings stand for the structures.

One may read the IC50 as the concentration needed to halve the response being measured. For the compound `COC(=O)/C=C/c1cccc(Nc2ccnc3cc(Cl)ccc23)c1`, in the data set with Plasmodium falciparum [1], the IC50 was 1.81 µM.

In the data set on Plasmodium falciparum [2], `O=[N+]([O-])c1ccc(Nc2ccnc3cc(Cl)ccc23)cc1` returned an IC50 of 5.51 µM. Take `CC(CNC(CCN1CCOCC1)c1ccccc1)Nc1ccnc2cc(Cl)ccc12` (stereo not given): inhibition in the data set with Plasmodium falciparum [3] was half-maximal at 2.94 µM (IC50).

In the case of `COc1ccc2nc(/C=C/c3ccc(Br)cc3)cc(NCCN(C)C)c2c1`, the IC50 in the data set on Plasmodium falciparum [4] is 0.04 µM. In the data set with Plasmodium falciparum [2], `Cc1cc(C(=O)NNc2ccnc3cc(Cl)ccc23)c2ccccc2n1` returned an IC50 of 0.09 µM. As to `CC(CNC(CCN(C)C)c1ccccc1)Nc1ccnc2cc(Cl)ccc12` (stereo not given), inhibition with Plasmodium falciparum [3] was half-maximal at 3.43 µM (IC50). Consider `CCN(CC)CCC(NCC(C)Nc1ccnc2cc(Cl)ccc12)c1ccccc1` (stereo not given), for which the midpoint of inhibition in the data set on Plasmodium falciparum [3], the IC50, lay at 3.84 µM. As to `COc1ccc2nc(/C=C/c3ccc([N+](=O)[O-])cc3)cc(N3CCN(C)CC3)c2c1`, in the data set with Plasmodium falciparum [4], the IC50 was found to be 0.452 µM. The compound `Cc1ccc(C(CCN(Cc2ccccc2)Cc2ccccc2)NCC(C)Nc2ccnc3cc(Cl)ccc23)cc1` (stereo not given) had an IC50 with Plasmodium falciparum [3] of 2.59 µM. `O=Cc1cc(OCc2cn(CCN3CCN(c4ccnc5cc(Cl)ccc45)CC3)nn2)ccc1Br`: the IC50 with Plasmodium falciparum [5] turned out to be 8.34 µM; in the data set on Plasmodium falciparum [6], 8.26 µM. Regarding `CC(CNC(CCN(Cc1ccccc1)Cc1ccccc1)c1ccccc1)Nc1ccnc2cc(Cl)ccc12` (stereo not given), 2.69 µM corresponded to half-maximal inhibition in the data set on Plasmodium falciparum [3] (IC50).

In general, CC50 refers to the concentration at which the toxic effect on the cells reaches its halfway point. In the case of `O=C(Cn1cc(-c2ccccc2)nn1)NCCCNc1ccnc2cc(Cl)ccc12`, in the data set with Plasmodium falciparum [7], the IC50 came to 0.137 µM. Also, in [8], the CC50 at 72 h came to 41.5 µM. On to `Cc1ccc(OCc2cn(CC(=O)NCCCCNc3ccnc4cc(Cl)ccc34)nn2)cc1`, for which, in the data set with Plasmodium falciparum [7], the IC50 was determined as 83.5 µM. The CC50 at 72 h in data set [8] amounted to 5.02 µM. Take `COC(=O)/C=C/c1ccc(Nc2ccnc3cc(Cl)ccc23)cc1`: in the data set on Plasmodium falciparum [1], the IC50 came out at 3.22 µM.

For `Cc1ccc(OCc2cn(CC(=O)NCCCNc3ccnc4cc(Cl)ccc34)nn2)cc1`, the IC50 in the data set on Plasmodium falciparum [7] was found to be 91.9 µM. Further, the CC50 at 72 h in data set [8] was greater than 208 µM. On to `N=C(N=C(N)N)SCCCCNc1ccnc2cc(C(F)(F)F)ccc12`, for which the CC50 in [9] was greater than 10.2 µM. Turning to `COc1ccc2nc(/C=C/c3ccc([N+](=O)[O-])cc3)cc(N3CCN(CCO)CC3)c2c1`, the IC50 in the data set on Plasmodium falciparum [4] is 0.672 µM.

Take `O=Cc1ccc(OCc2cn(CC(=O)NCCCNc3ccnc4cc(Cl)ccc34)nn2)cc1`: the IC50 with Plasmodium falciparum [7] turned out to be 0.91 µM. The CC50 at 72 h in [8] was determined as 12.2 µM. For the compound `CCN(CC)CCC(NCC(C)Nc1ccnc2cc(Cl)ccc12)c1ccc(C)cc1` (stereo not given), the IC50 with Plasmodium falciparum [3] was 5.27 µM. For `COc1ccc(C(CCN2CCOCC2)NCC(C)Nc2ccnc3cc(Cl)ccc23)cc1` (stereo not given), the half-inhibitory concentration (IC50) in the data set on Plasmodium falciparum [3] was found to be 3.89 µM. On to `CC1(C)OB(c2ccc(OCc3cn(CCNc4ccnc5cc(Cl)ccc45)nn3)cc2C=O)OC1(C)C`, for which the IC50 with Plasmodium falciparum [5] is 7.37 µM; in the data set with Plasmodium falciparum [6], 6.23 µM.

`COc1ccc2nc(/C=C/c3cccs3)cc(NCCN(C)C)c2c1`: the IC50 in the data set with Plasmodium falciparum [4] is 0.096 µM. In the data set with Plasmodium falciparum [3], `CCN(CC)CCC(NCC(C)Nc1ccnc2cc(Cl)ccc12)c1ccc(OC)cc1` (stereo not given) showed an IC50 of 2.41 µM.

As for `COc1ccc2nc(/C=C/c3ccc([N+](=O)[O-])cc3)cc(N3CCCCC3)c2c1`, the IC50 with Plasmodium falciparum [4] is greater than 10 µM.

Regarding `COc1ccc2nc(/C=C/c3ccc([N+](=O)[O-])cc3)cc(N3CCCC3)c2c1`, the IC50 in the data set with Plasmodium falciparum [4] was found to be 0.493 µM.

Regarding `O=C1c2cccc(N3CCOCC3)c2C(=O)N1CCNc1ccnc2cc(Cl)ccc12`, the IC50 at 24 h in data set [10] is 28.6 µM. In the data set on Plasmodium falciparum [11], the IC50 was found to be 0.18 µM. For `N=C(N=C(N)N)SCCCCNc1ccnc2cc(Cl)ccc12`, the CC50 in data set [9] was greater than 11 µM.

Take `CC1(C)OB(c2ccc(OCc3cn(-c4ccnc5ccc(Cl)cc45)nn3)cc2C=O)OC1(C)C`: the figures for the IC50 in the data set with Plasmodium falciparum [5] and with Plasmodium falciparum [6] were 6.49 µM and 6.19 µM, respectively. Regarding `CC(C)(C)NC(=O)/C=C/c1cccc(Nc2ccnc3cc(Cl)ccc23)c1`, the IC50 in the data set on Plasmodium falciparum [1] amounted to 14.8 µM. In the data set on Plasmodium falciparum [2], `COc1ccc(NNc2ccnc3cc(Cl)ccc23)cc1` registered an IC50 of 3.48 µM.

`COc1ccc(C(CCN(Cc2ccccc2)Cc2ccccc2)NCC(C)Nc2ccnc3cc(Cl)ccc23)cc1` (stereo not given) showed an IC50 in the data set on Plasmodium falciparum [3] of 2.4 µM. Turning to `COc1ccc(Nc2ccnc3cc(Cl)ccc23)cc1`, in the data set with Plasmodium falciparum [2], the midpoint of inhibition, the IC50, lay at 4.87 µM. For `O=C1c2ccc(N3CCCCC3)cc2C(=O)N1CCNc1ccnc2cc(Cl)ccc12`, the IC50 at 24 h in [10] worked out at 28.8 µM. The IC50 in the data set on Plasmodium falciparum [11] was 0.163 µM.

With `C=C[C@H]1CN2CC[C@H]1C[C@H]2[C@H](O)c1ccnc2ccc(OC)cc12` [QUININE], the results for the IC50 in the data set with Plasmodium falciparum [2] and in the data set with Plasmodium falciparum [6] were 0.83 µM and 0.504 µM, respectively. For the compound `O=C1c2cccc(N3CCCCC3)c2C(=O)N1CCNc1ccnc2cc(Cl)ccc12`, the IC50 at 24 h in data set [10] came to 28.8 µM. Also, in the data set on Plasmodium falciparum [11], the IC50 was determined as 0.158 µM. For the compound `O=C(NNc1ccnc2cc(Cl)ccc12)c1cc(-c2ccccc2)nc2ccccc12`, it took 0.6 µM to reach half-maximal inhibition in the data set with Plasmodium falciparum [2] (IC50). Consider `O=C1c2cccc(N3CCOCC3)c2C(=O)N1CCCNc1ccnc2cc(Cl)ccc12`, for which the IC50 at 24 h in data set [10] was determined as 222 µM. Besides, in the data set with Plasmodium falciparum [11], the IC50 worked out at 0.276 µM. As to `O=C(O)/C=C/c1ccc(Nc2ccnc3cc(Cl)ccc23)cc1`, the IC50 in the data set with Plasmodium falciparum [1] was determined as 18.5 µM.
